Earlier results as cited in patent US10709751B2, “Chardonnay grape seed extract” (SHAKLEE CORPORATION, priority 2014, dated 2020).

Tests used:
[1] = laboratory studies
[2] = system: neurons; details: laboratory studies

crossing of the blood-brain barrier [1] | Compound | growth and development of neurons [2]
cross the blood-brain barrier | Oc1cc(O)c2c(c1)O[C@H](c1ccc(O)c(O)c1)[C@H](O)C2 [epicatechin] | 
cross the blood-brain barrier | COc1cc(/C=C/c2ccc(O)cc2)cc(OC)c1 [pterostilbene] | 
 | chlorogenic acids | stimulate growth and development of neurons
